Three molecules from article PMC10698694 (ACS chemical biology, 2023) can be followed below.

Broadly, the IC50 is the midpoint of a concentration-inhibition curve. High values mean lower potency, low ones higher potency.

Experiment in all cases: AlphaScreen competition
Common to all, as to type: binding
(Bead proximity is the source of the signal in Alpha formats.)

Test [1] has as its target T1, BRD9 bromodomain (BRD9 BD) (Homo sapiens, UniProt Q9H8M2).
T1 sequence (Q9H8M2 134-239 limits assumed): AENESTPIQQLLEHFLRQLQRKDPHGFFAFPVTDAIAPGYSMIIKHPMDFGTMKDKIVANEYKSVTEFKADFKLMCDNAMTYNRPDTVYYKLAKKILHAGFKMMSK

Test [2] deals with CECR2 bromodomain (CECR2 BD) (Homo sapiens, UniProt Q9BXF3).
Test [3] has as its target BPTF bromodomain (BPTF BD) (Homo sapiens, UniProt Q12830).

`CS(=O)(=O)c1nc(NCCCn2cccn2)cc(-c2ccc(OCCCN3CCN(CCCCCCOc4cccc5c4C(=O)N(C4CCC(=O)NC4=O)C5=O)CC3)cc2)n1` (stereo not shown) [compound 8, 4-((6-(4-(3-(4-(6-((3-(1H-Pyrazol-1-yl)propyl)amino)-2-(methylsulfonyl)pyrimidin-4-yl)phenoxy)propyl)piperazin-1-yl)hexyl)oxy)-2-(2,6-dioxopiperidin-3-yl)isoindoline-1,3-dione]: the half-maximal inhibitory concentration (IC50) in test [1] was 844 nM; in test [2], 24 nM; in test [3], 146 ± 12 nM.

For the molecule `CS(=O)(=O)c1nc(NCCCn2cccn2)cc(-c2ccc(OCCCN3CCN(CCOCCOCCOc4cccc5c4C(=O)N(C4CCC(=O)NC4=O)C5=O)CC3)cc2)n1` (stereo not shown) [compound 9, 4-(2-(2-(2-(4-(3-(4-(6-((3-(1H-Pyrazol-1-yl)propyl)amino)-2-(methylsulfonyl)pyrimidin-4-yl)phenoxy)propyl)piperazin-1-yl)ethoxy)ethoxy)ethoxy)-2-(2,6-dioxopiperidin-3-yl)-isoindoline-1,3-dione], the IC50 in test [1] was determined as 996 nM; in test [2], 33 nM; in test [3], 267 ± 8 nM.

For `CN(CCCOc1ccc(-c2cc(NCCCn3cccn3)nc(S(C)(=O)=O)n2)cc1)CCOCCOCCOc1cccc2c1C(=O)N(C1CCC(=O)NC1=O)C2=O` (stereo not shown) [compound 10, 4-(2-(2-(2-((3-(4-(6-((3-(1H-Pyrazol-1-yl)propyl)amino)-2-(methylsulfonyl)pyrimidin-4-yl)phenoxy)propyl)(methyl)-amino)ethoxy)ethoxy)ethoxy)-2-(2,6-dioxopiperidin-3-yl)-isoindoline-1,3-dione], the IC50 in test [3] was determined as 360 nM.
